Laboratory results from the supplement of paper PMC10307832.

How the values were obtained:
Assay in all cases: relative viability (nuclei count vs DMSO), 5 days (fraction); higher = more cells survive
IU1-47 + Pemetrexed = compound: CC1=CC(=C(N1C2=CC=C(C=C2)Cl)C)C(=O)CN3CCCCC3 [IU1-47] + Nc1nc2[nH]cc(CCc3ccc(C(=O)N[C@@H](CCC(=O)O)C(=O)O)cc3)c2c(=O)[nH]1 [Pemetrexed] (partner 0.2 µM)
Outline: (§1)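 Medians of duplicate plates are given as relative viability. That measure is the nuclei count in treated wells divided by the count in vehicle wells. Counts were taken on 4× images of lung cancer cell lines in 1536-well plates, 5 days after pin-tool dosing the day after seeding with one drug alone or a fixed anchor-drug dose plus five library-drug doses (not always all listed) in √10 steps.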

FG-4592 + OSI-027 = compound: Cc1nc(C(=O)NCC(=O)O)c(O)c2ccc(Oc3ccccc3)cc12 [FG-4592] + COc1cccc2cc(-c3nc([C@H]4CC[C@H](C(=O)O)CC4)n4ncnc(N)c34)[nH]c12 [OSI-027] (partner 0.5 µM)
Outline: as §1

FG-4592 + Decitabine = compound: Cc1nc(C(=O)NCC(=O)O)c(O)c2ccc(Oc3ccccc3)cc12 [FG-4592] + Nc1ncn([C@H]2C[C@H](O)[C@@H](CO)O2)c(=O)n1 [Decitabine] (partner 2 µM)
Outline: as §1

FG-4592 + Olaparib = compound: Cc1nc(C(=O)NCC(=O)O)c(O)c2ccc(Oc3ccccc3)cc12 [FG-4592] + O=C(c1cc(Cc2n[nH]c(=O)c3ccccc23)ccc1F)N1CCN(C(=O)C2CC2)CC1 [Olaparib] (partner 8 µM)
Outline: as §1

Cell Line | relative viability (IU1-47 + Pemetrexed; first compound 0.08 µM) | relative viability (IU1-47 + Pemetrexed; first compound 0.253 µM) | relative viability (IU1-47 + Pemetrexed; first compound 0.8 µM) | relative viability (IU1-47 + Pemetrexed; first compound 2.53 µM) | relative viability (IU1-47 + Pemetrexed; first compound 8 µM) | relative viability (FG-4592 + OSI-027; first compound 0.08 µM) | relative viability (FG-4592 + OSI-027; first compound 0.253 µM) | relative viability (FG-4592 + OSI-027; first compound 2.53 µM) | relative viability (FG-4592 + OSI-027; first compound 8 µM) | relative viability (FG-4592 + Decitabine; first compound 0.08 µM) | relative viability (FG-4592 + Decitabine; first compound 0.253 µM) | relative viability (FG-4592 + Decitabine; first compound 0.8 µM) | relative viability (FG-4592 + Decitabine; first compound 2.53 µM) | relative viability (FG-4592 + Decitabine; first compound 8 µM) | relative viability (FG-4592 + Olaparib; first compound 0.08 µM) | relative viability (FG-4592 + Olaparib; first compound 0.253 µM) | relative viability (FG-4592 + Olaparib; first compound 0.8 µM) | relative viability (FG-4592 + Olaparib; first compound 2.53 µM) | relative viability (FG-4592 + Olaparib; first compound 8 µM) | relative viability (FG-4592 + OSI-027; first compound 0.8 µM)
HCC-44 | 0.706 | 0.685 | 0.647 | 0.668 | 0.696 | 0.504 | 0.489 | 0.476 | 0.377 | 0.902 | 0.941 | 0.914 | 0.93 | 1 | 0.971 | 0.921 | 1.03 | 1 | 1.01 | –
HCC-827 | 0.26 | 0.282 | 0.275 | 0.291 | 0.26 | 0.677 | 0.727 | 0.669 | 0.593 | 0.376 | 0.28 | 0.319 | 0.334 | 0.328 | 0.591 | 0.624 | 0.625 | 0.705 | 0.729 | 0.8
NCI-H1623 | – | – | – | – | – | 0.447 | 0.447 | 0.416 | 0.419 | – | – | – | – | – | – | – | – | – | – | 0.468
NCI-H2347 | 0.436 | 0.39 | 0.447 | 0.395 | 0.419 | 0.235 | – | 0.3 | 0.46 | 0.665 | 0.523 | 0.629 | 0.581 | 0.613 | 0.622 | 0.485 | 0.543 | 0.596 | 0.607 | 0.491
PC-14 | 0.169 | 0.129 | 0.171 | 0.153 | 0.144 | 0.871 | 0.655 | 0.747 | 0.494 | 0.193 | 0.243 | 0.213 | 0.195 | 0.226 | 0.268 | 0.289 | 0.258 | 0.248 | 0.302 | 0.855
NCI-H1651 | 0.587 | 0.559 | 0.616 | 0.311 | 0.451 | 0.741 | 0.639 | 0.645 | 0.605 | 0.713 | 0.603 | 0.703 | 0.668 | 0.499 | 0.182 | 0.175 | 0.196 | 0.17 | 0.176 | 0.719
HARA | 0.258 | – | 0.199 | 0.26 | 0.22 | 0.334 | 0.335 | 0.392 | 0.234 | – | – | – | 0.676 | 0.559 | – | – | – | 0.738 | 0.987 | 0.434
NCI-H1650 | 0.419 | 0.338 | 0.335 | 0.36 | 0.294 | 0.523 | 0.603 | 0.621 | 0.634 | 0.504 | 0.378 | 0.358 | 0.421 | 0.331 | 0.786 | 0.721 | 0.843 | 0.781 | 0.869 | 0.839
NCI-H1395 | 0.888 | 0.853 | 0.747 | 0.508 | 0.738 | 0.593 | 0.644 | 0.612 | 0.549 | 0.766 | 0.677 | 0.75 | 0.686 | 0.614 | 0.526 | 0.488 | 0.471 | 0.48 | 0.385 | 0.56
LU99A | 0.178 | 0.227 | 0.155 | 0.187 | 0.191 | 0.332 | 0.276 | 0.267 | 0.27 | 0.842 | 0.796 | – | 0.906 | 0.795 | 0.268 | 0.242 | – | 0.276 | 0.29 | 0.296
NCI-H1355 | 1.06 | 1.08 | 1.12 | – | 1.07 | 0.376 | 0.372 | 0.301 | 0.35 | 0.355 | 0.297 | – | 0.378 | 0.307 | 0.803 | 0.66 | – | 0.759 | 0.719 | 0.353
NCI-H1563 | 0.892 | 0.829 | 0.871 | 0.703 | 0.716 | 0.78 | 0.785 | 0.701 | 0.606 | – | – | – | – | – | – | – | – | – | – | 0.718
ABC-1 | – | – | – | – | – | 0.548 | 0.482 | 0.501 | 0.4 | 0.87 | 1.09 | – | 0.898 | 0.957 | 0.781 | 0.798 | – | 1.13 | 1.07 | 0.47
A549 | – | – | – | – | – | – | – | – | – | 0.276 | 0.214 | 0.378 | 0.281 | 0.207 | 0.252 | 0.274 | – | 0.44 | 0.385 | –
NCI-H1703 | – | – | – | – | – | – | – | – | – | – | – | – | – | – | 0.428 | 0.337 | 0.336 | 0.341 | 0.423 | –
Calu-6 | – | – | – | – | – | – | – | – | – | – | – | – | – | – | 0.543 | 0.575 | 0.653 | 0.56 | 0.648 | –
EBC-1 | – | – | – | – | – | – | – | – | – | – | – | – | – | – | 0.83 | 0.663 | 0.718 | 0.659 | 0.662 | –
NCI-H1299 | – | – | – | – | – | – | – | – | – | – | – | – | – | – | 0.935 | 0.906 | 1.01 | 1.01 | 0.971 | –
NCI-H2228 | 0.37 | 0.345 | 0.387 | 0.362 | 0.362 | 0.596 | 0.402 | 0.643 | 0.376 | – | – | – | – | – | 0.386 | 0.697 | 0.794 | 0.517 | 0.693 | 0.42
IA-LM | – | – | – | – | – | – | – | – | – | – | – | – | – | – | 0.712 | 0.623 | 0.663 | 0.81 | 0.727 | –
NCI-H727 | – | – | – | – | – | 0.41 | 0.46 | 0.524 | 0.593 | 0.889 | 0.663 | 1.15 | 0.9 | 0.84 | 0.698 | 0.782 | 0.752 | 0.681 | 0.672 | 0.596
CAL-12T | 1.2 | 1.39 | 1.15 | 1.34 | 1.04 | 0.829 | 0.663 | 0.49 | 0.333 | – | – | – | – | – | 0.63 | 0.67 | 0.727 | 0.764 | 0.687 | 0.642
